Reference: patent US20180363011A1, “MICROORGANISMS AND USE THEREOF FOR THE PRODUCTION OF DIACIDS” (FONDS DE DEVELOPPEMENT DES FILIERES DES OLEAGINEUX ET DES …, priority 2015, published 2018)

How the values were obtained:
[1] = test system: ALK11 (Alk11p, cytochrome P450 CYP52); test: In vitro enzymatic assay: conversion of radiolabeled fatty acids by microsomes of S. cerevisiae WAT11 expressing ALK11 (TLC); conditions: yeast microsomes, NADPH; for Degree of conversion (%): gene ALK11, substrate 100 μM, ND: not detectable
Experimental: (§1) In order to confirm their hypotheses according to which these enzymes catalyze fatty acids by oxygenation reaction, the inventors performed a screening using microsomes of S. cerevisiae WAT11 yeast transformed with 6 of the genes of the CYP52 family, cloned into Yarrowia lipolytica: ALK2, ALK3, ALK4, ALK5, ALK6 and ALK11.
(§2) The incubations were carried out on the model substrate constituted by lauric acid (C12.0), in the presence of NADPH.
(§3) The reaction mixtures were deposited on TLC plates, and then developed and analyzed.
(§4) In order to study the substrate specificity of these enzymes, the inventors incubated each microsomal preparation with free fatty acids of different size and at various levels of unsaturation (for example, myristic acid—C14:0, palmitic acid—C16:0, stearic acid—C18:0, oleic acid—C18:1 and linoleic acid—C18:2).
The expression of the proteins of the 6 members of the 6YP52 family cloned was carried out using a heterologous system specifically designed for the expression of cytochrome P450 enzymes, based on the pYeDP60 vector and the Saccharomyces cerevisiae WAT11 strain. The WAT11 strain was transformed with each of the pYeDP60 constructs using the lithium acetate LiAc method. The transformants were selected by plating out on YNB plates lacking uracil. The yeasts are left in culture and the expression of cytochrome P450 was induced as described in Pompon et al., 1996. For each transformant, the microsomes were prepared by manually breaking the cells using glass beads (0.45 mm in diameter) in 50 mM of a Tris-HCl buffer (pH 7.5) containing 1 mM EDTA and 600 mM of sorbitol. The homogenate was subjected to centrifugation (10 000 g-15 min) and the resulting supernatant was subjected to ultracentrifugation (100 000 g-1 h). The microsome pellet was resuspended in 50 mM Tris-HCl (pH 7.4), mM EDTA and 30% (v/v) of glycerol with a Potter-Elvehjem homogenizer. The volume of buffer used for resuspending the microsomes was determined by the approximate weight of the wet pellet of yeast obtained after growth (1 ml of buffer per 2 g of cell pellet). The total concentrations of protein in the microsomes were estimated using the Bradford test and homogenized at 15 mg/ml using the appropriate volume of resuspension buffer. […]
(§5) The activity of the cytochrome P450 enzymes was evaluated in vitro using various radiolabeled fatty acids. […]
The reaction mixtures were deposited directly on TLC plates covered with silica in order to separate the incubation products from the initial substrate. […] The plates were scanned using a radioactivity detector. The chromatograms resulting from the TLC make it possible to determine the degrees of conversion for each cytochrome P450/fatty acid combination, based on the radioactivity detected by the reader. […]

[2] = test system: ALK5 (Alk5p, cytochrome P450 CYP52); test: In vitro enzymatic assay: conversion of radiolabeled fatty acids by microsomes of S. cerevisiae WAT11 expressing ALK5 (TLC); conditions: yeast microsomes, NADPH; for Degree of conversion (%): gene ALK5, substrate 100 μM, ND: not detectable
Experimental: as §1, §2, §3, §4
(§6) The expression of the proteins of the 6 members of the 6YP52 family cloned was carried out using a heterologous system specifically designed for the expression of cytochrome P450 enzymes, based on the pYeDP60 vector and the Saccharomyces cerevisiae WAT11 strain. The WAT11 strain was transformed with each of the pYeDP60 constructs using the lithium acetate LiAc method. The transformants were selected by plating out on YNB plates lacking uracil. The yeasts are left in culture and the expression of cytochrome P450 was induced as described in Pompon et al., 1996. For each transformant, the microsomes were prepared by manually breaking the cells using glass beads (0.45 mm in diameter) in 50 mM of a Tris-HCl buffer (pH 7.5) containing 1 mM EDTA and 600 mM of sorbitol. The homogenate was subjected to centrifugation (10 000 g-15 min) and the resulting supernatant was subjected to ultracentrifugation (100 000 g-1 h). The microsome pellet was resuspended in 50 mM Tris-HCl (pH 7.4), mM EDTA and 30% (v/v) of glycerol with a Potter-Elvehjem homogenizer. The volume of buffer used for resuspending the microsomes was determined by the approximate weight of the wet pellet of yeast obtained after growth (1 ml of buffer per 2 g of cell pellet). The total concentrations of protein in the microsomes were estimated using the Bradford test and homogenized at 15 mg/ml using the appropriate volume of resuspension buffer. The microsome preparation was stored at −20° C. All the experiments for the microsome preparations were carried out between 0 and 4° C.
(§7) The activity of the cytochrome P450 enzymes was evaluated in vitro using various radiolabeled fatty acids. The standard test (0.1 ml) contained […] sodium phosphate (pH 7.4), […] NADPH, a radiolabeled substrate (100 μM) and 0.15 mg of microsomal protein. The reactions were carried out in a waterbath at 27° C. with continuous shaking. The reaction is initiated by adding NADPH and stopped after 20 min by adding 20 μl of acetonitrile containing 0.2% of acetic acid.
The reaction mixtures were deposited directly on TLC plates covered with silica in order to separate the incubation products from the initial substrate. The plates were developed using an ether/petroleum ether/formic acid mixture (50:50:1, v/v/v). The plates were scanned using a radioactivity detector. The chromatograms resulting from the TLC make it possible to determine the degrees of conversion for each cytochrome P450/fatty acid combination, based on the radioactivity detected by the reader. The mobility of the products on the TLC plate is a good indication of the type of oxygenation reaction that was carried out on the substrate (i.e. hydroxylation, epoxidation, diacid formation).

[3] = test system: ALK2 (Alk2p, cytochrome P450 CYP52); test: In vitro enzymatic assay: conversion of radiolabeled fatty acids by microsomes of S. cerevisiae WAT11 expressing ALK2 (TLC); conditions: yeast microsomes, NADPH; for Degree of conversion (%): gene ALK2, substrate 100 μM, ND: not detectable
Experimental: as §1, §2, §3, §4, §6, §7
The reaction mixtures were deposited directly on TLC plates covered with silica in order to separate the incubation products from the initial substrate. The plates were developed using an ether/petroleum ether/formic acid mixture (50:50:1, v/v/v). The plates were scanned using a radioactivity detector. The chromatograms resulting from the TLC make it possible to determine the degrees of conversion for each cytochrome P450/fatty acid combination, based on the radioactivity detected by the reader. […]

[4] = test system: ALK3 (Alk3p, cytochrome P450 CYP52); test: In vitro enzymatic assay: conversion of radiolabeled fatty acids by microsomes of S. cerevisiae WAT11 expressing ALK3 (TLC, GC-MS); conditions: NADPH; for Products of conversion by Alk3p seen in TLC chromatograms: fresh microsomes, standardized total protein, duplicate; for Degree of conversion (%): gene ALK3, substrate 100 μM, ND: not detectable; for Reaction product of Alk3p identified by GC-MS (first product peak) / Reaction product of Alk3p identified by GC-MS (second peak, diacid): incubation with Alk3p microsomes, GC-MS of methylated/TMS derivatives
Experimental: as §1, §2, §3, §4
Preparations of fresh microsomes of yeast expressing Alk3p were carried out. The inventors standardized the total protein content and performed new incubations with lauric acid and palmitic acid and also the abovementioned three C18 fatty acids (stearic acid, oleic acid and linoleic acid). All the reactions were carried out in duplicate in the presence of NADPH for analysis by TLC and GC-MS.
as §6, §7
The reaction mixtures were deposited directly on TLC plates covered with silica in order to separate the incubation products from the initial substrate. The plates were developed using an ether/petroleum ether/formic acid mixture (50:50:1, v/v/v). The plates were scanned using a radioactivity detector.

[5] = test system: ALK4 (Alk4p, cytochrome P450 CYP52); test: In vitro enzymatic assay: conversion of radiolabeled fatty acids by microsomes of S. cerevisiae WAT11 expressing ALK4 (TLC); conditions: gene ALK4, substrate 100 μM, yeast microsomes, NADPH, ND: not detectable
Experimental: as §1, §2
The reaction mixtures were deposited on TLC plates, and then developed and analyzed. […]
The expression of the proteins of the 6 members of the 6YP52 family cloned was carried out using a heterologous system specifically designed for the expression of cytochrome P450 enzymes, based on the pYeDP60 vector and the Saccharomyces cerevisiae WAT11 strain. […] The volume of buffer used for resuspending the microsomes was determined by the approximate weight of the wet pellet of yeast obtained after growth (1 ml of buffer per 2 g of cell pellet). […]
as §5
The reaction mixtures were deposited directly on TLC plates covered with silica in order to separate the incubation products from the initial substrate. […] The plates were scanned using a radioactivity detector. […]

SMILES | Degree of conversion (%) [1] | Conversion of the fatty acid by Alk11p, in words [1] | Degree of conversion (%) [2] [%] | Conversion of the fatty acid by Alk5p, in words [2] | Degree of conversion (%) [3] [%] | Conversion of the fatty acid by Alk2p, in words [3] | Products of conversion by Alk3p seen in TLC chromatograms ([4]; TLC) | Degree of conversion (%) ([4]; yeast microsomes, TLC) | Reaction product of Alk3p identified by GC-MS (first product peak) [4] | Conversion of the fatty acid by Alk3p, in words ([4]; yeast microsomes, TLC) | Reaction product of Alk3p identified by GC-MS (second peak, diacid) [4] | Degree of conversion (%) [5] [%]
CCCCCCCCCCCC(=O)O [C12:0, lauric acid] | Traces | capable of metabolizing | 24 | capable of metabolizing | 7.3 | capable of metabolizing | two products | 65 | 12-hydroxylauric acid derivative | capable of metabolizing |  | 
CCCCCCCCCCCCCC(=O)O [C14:0, myristic acid] |  |  | 27 |  | 1.1 |  |  | 68 |  |  |  | 
CCCCCCCCCCCCCCCC(=O)O [C16:0, palmitic acid] |  |  | 12 |  | 0.5 |  |  |  |  |  |  | 
CCCCCCCCCCCCCCCCCC(=O)O [C18:0, stearic acid] |  |  | 2 |  |  | No significant conversion | only an w-oxidation product | 3 | 18-hydroxystearic acid derivative |  |  | 
CCCCCCCC/C=C\CCCCCCCC(=O)O [C18:1, oleic acid] | 2% |  | 13 |  |  |  | two products | 27 | 18-hydroxyoleic acid derivative |  | 1,18-octadeca-9-enedioic acid | 
CCCCC/C=C\C/C=C\CCCCCCCC(=O)O [C18:2, linoleic acid] | 4% |  | 11 |  |  |  | two products | 35 | 18-hydroxylinoleic acid derivative |  | 1,18-octadeca-9,12-dienedioic derivative | 3
